Source: patent US20050215520A1, “Complex of organic medicines and beta-cyclodextrin derivatives and its preparing process” (priority 2002, published 2005)

test system: not given; test: not given; conditions: medicine alone; cited from earlier work

Compound | water solubility of the medicine
C[C@@H]1CC[C@H]2[C@@H](C)C(=O)O[C@@H]3O[C@@]4(C)CC[C@@H]1[C@]32OO4 [Artemisinin] | hardly water-soluble

test system: plasmodium; test: Medicine efficacy on killing plasmodium in mice infected plasmodium; assay type: in vivo; conditions: ED90 of original medicine p.o. relative to its complex iv (complex = 1)

Compound | ED90 comparison p.o./iv
C[C@@H]1CC[C@H]2[C@@H](C)C(=O)O[C@@H]3O[C@@]4(C)CC[C@@H]1[C@]32OO4 [Artemisinin] | 2.13
C[C@H]1[C@H](OC(=O)CCC(=O)O)O[C@@H]2O[C@@]3(C)CC[C@H]4[C@H](C)CC[C@@H]1[C@@]24OO3 [Artesunate] | 1.88

same assay, conditions: Plasmodium, po, read-out: efficacy (killing) ED50

Compound | ED50
C[C@H]1[C@H](OC(=O)CCC(=O)O)O[C@@H]2O[C@@]3(C)CC[C@H]4[C@H](C)CC[C@@H]1[C@@]24OO3 [Artesunate] | 9.96 mg/kg

same assay, conditions: mice infected plasmodium, route of administration po.; read-out: efficacy (killing) ED50

Compound | ED50
C[C@@H]1CC[C@H]2[C@@H](C)C(=O)O[C@@H]3O[C@@]4(C)CC[C@@H]1[C@]32OO4 [Artemisinin] | 19 mg/kg

test system: not listed separately; test: Critical mole ratio or critical mass ratio of medicines and beta-cyclodextrin derivative (Table 1, examples); assay type: physicochemical; conditions: not given
Experimental: The critical mole ratio or critical mass ratio in the present invention refers to the mole ratio and mass ratio when complex of organic medicine and beta-cyclodextrin derivatives prepared with the method of this invention is dissolved exactly in water of specified amount to form stable aqueous solution.
The critical value of organic medicine and beta-cyclodextrin derivatives in the present invention, may be determined with the undermentioned unit test method.
(§1) All kinds of mole ratio and mass ratio of the medicine and beta-cyclodextrin derivative is made into complex with expanding loose body according to the method of the present invention, then the set water is added into the a variety of compounding ratio of complex, and by observing properties of the solution, the compounding ratio of exactly dissolving in water and with stable property, acts as the critical mole ratio or critical mass ratio of the present invention.
The critical mole ratio and critical mass ratio in the present invention may be determined with the undermentioned saturated solution method.
Weighing accurately medicine, and placing in the container, and gradually adding beta-cyclodextrin aqueous solution metered accurately with agitation, until the medicine is dissolved exactly and completely in this aqueous solution. Calculate both mass number here and convert it to mole number. Repeat the above-mentioned test, and get the mean mole number of repeated test, and calculate critical mole ratio with the undermentioned formula: Critical mole ratio of medicine=mean mole number of beta-cyclodextrin/mean mole number of medicine

Compound | Critical value mole ratio
CN1C(=O)CN=C(c2ccccc2)c2cc(Cl)ccc21 [Diazepam] | 3
C[C@]12CC[C@H]3[C@@H](CCC4=CC(=O)CC[C@@]43C)[C@@H]1CC[C@@H]2O [testosterone] | 4

same assay, conditions: beta-cyclodextrin derivative (hydroxide propyl beta-cyclodextrin in the examples) to medicine; complex dissolves exactly in water to stable solution

Compound | Critical value mole ratio | Critical value Mass ratio
C[C@]12CC[C@H](O)CC1=CC[C@@H]1[C@@H]2CC[C@]2(C)C(=O)CC[C@@H]12 [Prasterone] | 3 | –
CC(=O)N1CCN(c2ccc(OCC3COC(Cn4ccnc4)(c4ccc(Cl)cc4Cl)O3)cc2)CC1 (centres unmarked) [Ketoconazole] | 3 | –
CC(C)Cc1ccc(C(C)C(=O)O)cc1 (centres unmarked) [Ibuprofen] | – | 8
CC1(C)S[C@@H]2[C@H](NC(=O)[C@H](N)c3ccccc3)C(=O)N2[C@H]1C(=O)O [Ampicilline] | 3 | –
O=C(O)c1cn(C2CC2)c2cc(N3CCNCC3)c(F)cc2c1=O [Ciprofloxacin] | 5 | –
CC(CN1c2ccccc2S(=O)(=O)c2ccccc21)N(C)C (centres unmarked) [Dioxopromethazine] | – | 2
Cc1cc(NS(=O)(=O)c2ccc(N)cc2)no1 [sulfamethoxazole] | 2 | –
Cc1noc(NS(=O)(=O)c2ccc(N)cc2)c1C [sulfafurazole] | 2 | –
CN1C(C(=O)Nc2ccccn2)=C(O)c2ccccc2S1(=O)=O [Piroxicam] | – | 15
C[C@@H]1CC[C@H]2[C@@H](C)C(=O)O[C@@H]3O[C@@]4(C)CC[C@@H]1[C@]32OO4 [Artemisinin] | 5 | –
Cc1ncc([N+](=O)[O-])n1CCO [Metronidazole] | – | 9
Cc1nc(C)c(C)nc1C [ligustrazine] | – | 12
Artemoter | 8 | –
CS(=O)(=O)OCCCCOS(C)(=O)=O [Busulfan] | 5 | –
COc1cc(Cc2cnc(N)nc2N)cc(OC)c1OC [TMP] | 3 | –
COc1cc(C=O)ccc1O [vanillin] | – | 9
Cc1ccc(-c2nc3ccc(C)cn3c2CC(=O)N(C)C)cc1 [Zolpidem] | 2 | –
Nc1ccc(S(=O)(=O)Nc2ncccn2)cc1 [sulfadiazine] | 3 | –
CC(C)CC(N(C)C)C1(c2ccc(Cl)cc2)CCC1 (centres unmarked) [Sibutramine] | – | 2
CCn1cc(C(=O)O)c(=O)c2cc(F)c(N3CCNCC3)cc21 [norfloxacin] | – | 30
NC(=O)CCCCC1CCSS1 (centres unmarked) [thioctamide] | – | 7
CC[C@H](C)C(=O)O[C@H]1C[C@@H](C)C=C2C=C[C@H](C)[C@H](CC[C@@H]3C[C@@H](O)CC(=O)O3)[C@H]21 [Lovastatin] | 26 | –
CCCc1nn(C)c2c(=O)[nH]c(-c3cc(S(=O)(=O)N4CCN(C)CC4)ccc3OCC)nc12 [Sildenafil] | 2 | –
CCS(=O)(=O)CCn1c([N+](=O)[O-])cnc1C [Tinidazole] | – | 6.5
CC1CCC(C(C)C)C(O)C1 (centres unmarked) [menthol] | 2 | –
OC(CCCN1CCCCC1)(c1ccccc1)c1ccccc1 [difenidol] | 1 | –
COc1cc([C@@H]2c3cc4c(cc3[C@@H](O[C@@H]3O[C@@H]5CO[C@@H](C)O[C@H]5[C@H](O)[C@H]3O)[C@H]3COC(=O)[C@H]23)OCO4)cc(OC)c1O [Etoposide] | 10 | –
CC[C@H]1OC(=O)[C@H](C)[C@@H](O[C@H]2C[C@@](C)(OC)[C@@H](O)[C@H](C)O2)[C@H](C)[C@@H](O[C@@H]2O[C@H](C)C[C@H](N(C)C)[C@H]2O)[C@](C)(O)C[C@@H](C)/C(=N\OCOCCOC)[C@H](C)[C@@H](O)[C@]1(C)O [Roxithromycin] | 18 | –

Compound | Critical value mole ratio | Critical value Mass ratio
C[C@]12C=CC(=O)C=C1CC[C@@H]1[C@@H]2C(=O)C[C@@]2(C)[C@H]1CC[C@]2(O)C(=O)CO [prednisone] | 4 | –
CC(=O)Nc1ccc(O)cc1 [paracetamol] | – | 3
NC(N)=Nc1nc(CSCCC(N)=NS(N)(=O)=O)cs1 [famotidine] | – | 9
Clc1ccc(COC(Cn2ccnc2)c2ccc(Cl)cc2Cl)c(Cl)c1 (centres unmarked) [Miconazole] | 6 | –
CN1CCC(=C2c3ccccc3CC(=O)c3sccc32)CC1 [ketotifen] | – | 4
CC(=O)O[C@H]1C(=O)[C@@]2(C)[C@H]([C@H](OC(=O)c3ccccc3)[C@]3(O)C[C@H](OC(=O)[C@H](O)[C@@H](NC(=O)c4ccccc4)c4ccccc4)C(C)=C1C3(C)C)[C@]1(OC(C)=O)CO[C@@H]1C[C@@H]2O [Taxol] | 100 | –
Clc1ccccc1C(c1ccccc1)(c1ccccc1)n1ccnc1 [Clotrimazole] | 4 | –
COc1cc2c(cc1OC)[C@@H]1Cc3ccc(OC)c(OC)c3CN1CC2 [Rotundine] | 1 | –
CC[C@H]1OC(=O)[C@H](C)[C@@H](O[C@H]2C[C@@](C)(OC)[C@@H](O)[C@H](C)O2)[C@H](C)[C@@H](O[C@@H]2O[C@H](C)C[C@H](N(C)C)[C@H]2O)[C@](C)(OC)C[C@@H](C)C(=O)[C@H](C)[C@@H](O)[C@]1(C)O [Clarithromycin] | 18 | –
Oryzanol | – | 38
CCN1C[C@]2(OC(=O)c3ccccc3NC(C)=O)CC[C@H](OC)[C@@]34[C@@H]2C[C@@H]([C@@H]13)[C@@]1(O)C[C@H](OC)[C@H]2C[C@@H]4[C@]1(O)[C@H]2OC [Lappaconitine] | 2 | –
CC/C(=C(\c1ccccc1)c1ccc(OCCN(C)C)cc1)c1ccccc1 [Tamoxifen] | 2 | –
CC(=O)S[C@@H]1CC2=CC(=O)CC[C@]2(C)[C@H]2CC[C@@]3(C)[C@@H](CC[C@@]34CCC(=O)O4)[C@H]12 [spironolactone] | 3 | –
C[C@H]1[C@H](OC(=O)CCC(=O)O)O[C@@H]2O[C@@]3(C)CC[C@H]4[C@H](C)CC[C@@H]1[C@@]24OO3 [Artesunate] | 3 | –
Medicamycin | 8 | –
Clc1ccc2c(c1)C(c1ccccc1)=NCc1nncn1-2 [Estazolam] | – | 20
CC[C@H]1OC(=O)[C@H](C)[C@@H](O[C@H]2C[C@@](C)(OC)[C@@H](O)[C@H](C)O2)[C@H](C)[C@@H](O[C@@H]2O[C@H](C)C[C@H](N(C)C)[C@H]2O)[C@](C)(O)C[C@@H](C)CN(C)[C@H](C)[C@@H](O)[C@]1(C)O [Azithromycin] | 16 | –
CC12CCC(CC1=O)C2(C)C (centres unmarked) [camphor] | – | 8
CN(Cc1cc(Br)cc(Br)c1N)C1CCCCC1 [Bromhexine] | 3 | –
O=C(O)CCCC[C@@H]1CCSS1 [lipoic acid] | 1 | –
O=C1Nc2ccc(Cl)cc2C(c2ccccc2Cl)=NC1O (centres unmarked) [Lorazepam] | 3 | –
Cc1ccc(S(=O)(=O)NC(=O)NN2CC3CCCC3C2)cc1 (centres unmarked) [gliclazide] | 2 | –
CCOC(=O)[N-]c1cn(N2CCOCC2)n[o+]1 [molsidomine] | – | 11
CC[C@H]1OC(=O)[C@H](C)[C@@H](O[C@H]2C[C@@](C)(OC)[C@@H](O)[C@H](C)O2)[C@H](C)[C@@H](O[C@@H]2O[C@H](C)C[C@H](N(C)C)[C@H]2O)[C@](C)(O)C[C@@H](C)C(=O)[C@H](C)[C@@H](O)[C@]1(C)O [Erythromycin] | 6 | –
CC1(C)C2CCC1(C)C(O)C2 (centres unmarked) [borneol] | – | 6
CC(C)(O)C(Cl)(Cl)Cl [chlorbutanol] | – | 6
Cn1c(=O)c2c(ncn2C)n(C)c1=O [caffein] | – | 4

test system: not listed separately; test: Critical value of complex by unit test method (complexes of various compounding ratio dissolved in set water, solution properties observed); assay type: physicochemical; conditions: hydroxide propyl beta-cyclodextrin to medicine
Experimental: as §1, with “The critical value of organic medicine and beta-cyclodextrin derivatives in the present invention, may be determined with the undermentioned unit test method. All” for “All”

Compound | critical mass ratio of complex | critical mole ratio of complex
C[C@@H]1CC[C@H]2[C@@H](C)C(=O)O[C@@H]3O[C@@]4(C)CC[C@@H]1[C@]32OO4 [Artemisinin] | about 28 | about 5

test system: not listed separately; test: Critical mole ratio by saturated solution method; assay type: physicochemical; conditions: 40% hydroxide propyl beta-cyclodextrin aqueous solution, mean of 3 tests
Experimental: The critical mole ratio and critical mass ratio in the present invention may be determined with the undermentioned saturated solution method. Weighing accurately medicine, and placing in the container, and gradually adding beta-cyclodextrin aqueous solution metered accurately with agitation, until the medicine is dissolved exactly and completely in this aqueous solution. Calculate both mass number here and convert it to mole number. Repeat the above-mentioned test, and get the mean mole number of repeated test, and calculate critical mole ratio with the undermentioned formula: Critical mole ratio of medicine=mean mole number of beta-cyclodextrin/mean mole number of medicine For example, critical mole ratio of Artemisinin and hydroxide propyl beta-cyclodextrin is measured with the undermentioned method: Weight accurately Artemisinin, and grind in tissue grinding device, and place in beaker, and gradually add 40% hydroxide propyl beta-cyclodextrin aqueous solution metered accurately while agitation, until Artemisinin is dissolved exactly and completely in this aqueous solution. Calculate both mass number here and convert it to mole number.

Compound | critical mole ratio
C[C@@H]1CC[C@H]2[C@@H](C)C(=O)O[C@@H]3O[C@@]4(C)CC[C@@H]1[C@]32OO4 [Artemisinin] | about 5
